According to patent publication US20200115698A1, “PHARMACEUTICAL COMBINATION FOR TREATMENT OF FABRY DISEASE AND USE THEREOF” (MEIJI PHARMACEUTICAL UNIVERSITY, priority 2017, published 2020):

Experiments:
[1] = target: T1, α-NAGA mutant (SEQ ID NO:8) (Homo sapiens, UniProt P17050, A191L/S188E); assay: Screening of inhibitor (1): remaining enzyme activity of α-NAGA mutant with 4-methylumbelliferyl α-D-galactopyranoside; assay type: biochemical; details: 400 μM compound, pH 4.6, 37° C., 30 minutes
T1 sequence (P17050 with tags, fused parts or gaps S188E/A191L): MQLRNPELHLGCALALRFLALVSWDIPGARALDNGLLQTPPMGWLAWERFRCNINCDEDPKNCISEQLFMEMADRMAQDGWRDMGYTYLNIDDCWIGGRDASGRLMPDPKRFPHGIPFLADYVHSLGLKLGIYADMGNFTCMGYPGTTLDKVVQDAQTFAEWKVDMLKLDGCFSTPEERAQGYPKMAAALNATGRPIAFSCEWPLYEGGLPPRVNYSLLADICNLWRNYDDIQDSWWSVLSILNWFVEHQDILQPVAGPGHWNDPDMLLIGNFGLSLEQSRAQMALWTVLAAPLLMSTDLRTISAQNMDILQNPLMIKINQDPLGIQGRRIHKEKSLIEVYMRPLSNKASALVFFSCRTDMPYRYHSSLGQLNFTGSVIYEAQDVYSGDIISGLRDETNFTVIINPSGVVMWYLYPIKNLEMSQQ
Description: The screening of inhibitor was carried out as follows: An inhibitor candidate compound dissolved in purified water or DMSO was added to 20 ng of an α-NAGA mutant (SEQ ID NO:8) and 4 mM 4-methylumbelliferylα-D-galactopyranoside dissolved in 0.1 M phosphate-citrate buffer (pH 4.6) such that a concentration of the inhibitor candidate compound became 0.8, 1, or 400 μM, and the mixture thus obtained was caused to react at 37° C. for 30 minutes (the total amount was 50 μl). After the reaction, 950 μl of 0.2 M glycine buffer (pH 10.7) was added to stop the reaction. Then, released 4-methylumbelliferone was measured at an excitation wavelength of 355 nm and at a fluorescence wavelength of 460 nm with use of Wallac 1420 ARVO MX Multilabel Counter. Remaining enzyme activity was calculated based on the assumption that an enzyme activity value obtained in a case where purified water or DMSO is added instead of the inhibitor candidate compound is 100%.

α-NAGA mutant = target: T2, α-NAGA mutant (Homo sapiens, UniProt P17050, A191L/S188E); assay: Calculation of inhibition constant Ki (Lineweaver-Burk plot); assay type: biochemical; details: substrate 1-8 mM; DGJ 100-400 nM, GBS 200-800 nM; pH 4.6; FIG. 2
T2 sequence (P17050 with tags, fused parts or gaps S188E/A191L): T1 sequence (P17050 with tags, fused parts or gaps S188E/A191L)
Description: Enzymatic analysis was carried out by using, as a reaction liquid, 50 ng of an α-NAGA mutant and 0.1 M phosphate-citrate buffer (pH 4.6) in which a 4-methylumbelliferylα-D-galactopyranoside substrate was dissolved at any of concentrations (1, 2, 4, 6, and 8 mM) (the total amount was 50 μl). In measuring inhibitory activity, reaction was carried out with a reaction liquid which contained DGJ at a concentration of 100, 200, or 400 nM or GBS at a concentration of 200, 400, or 800 nM. After the reaction was carried out at 37° C. for 10 minutes, 950 μl of 0.2 M glycine buffer (pH 10.7) was added to stop the reaction. Then, released 4-methylumbelliferone was measured at an excitation wavelength of 355 nm and at a fluorescence wavelength of 460 nm with use of Wallac 1420 ARVO MX Multilabel Counter. From these values, a Lineweaver-Burk plot was prepared and an inhibition constant Ki was calculated from slopes in the plot which correspond to respective concentrations of the inhibitor.

recombinant α-GAL = target: T3, recombinant α-GAL (Homo sapiens, UniProt P06280); details: simultaneous administration to a patient of Fabry disease; cited from earlier work
T3 sequence (P06280 32-429): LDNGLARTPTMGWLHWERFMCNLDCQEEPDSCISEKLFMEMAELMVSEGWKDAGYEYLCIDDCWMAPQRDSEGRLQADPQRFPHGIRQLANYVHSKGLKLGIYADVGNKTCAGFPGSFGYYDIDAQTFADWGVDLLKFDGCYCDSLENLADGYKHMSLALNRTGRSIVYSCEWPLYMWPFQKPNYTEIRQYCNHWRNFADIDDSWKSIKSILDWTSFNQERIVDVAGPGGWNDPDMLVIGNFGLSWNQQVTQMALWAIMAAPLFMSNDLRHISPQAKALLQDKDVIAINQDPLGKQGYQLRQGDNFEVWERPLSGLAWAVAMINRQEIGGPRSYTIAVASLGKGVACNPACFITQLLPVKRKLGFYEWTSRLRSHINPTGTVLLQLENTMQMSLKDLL

OCC1NCC(O)C(O)C1O [DGJ, (2R,3S,4R,5S)-2-(hydroxymethyl)piperdine-3,4,5-triol]
inhibition effect on α-NAGA mutant (remaining enzyme activity) [1]: the inhibition effect was seen | inhibition pattern from inhibition constant Ki (α-NAGA mutant): inhibitory activity by competitive inhibition | stabilization of administered recombinant α-GAL in the blood (recombinant α-GAL): recombinant α-GAL was stabilized
